Source: publication PMC6045421 (ACS Omega, 2018)
Entries after “also recorded” stand apart in the source; their conditions may differ.

Assays:
[1] = target: recombinant human IRAP (Homo sapiens, UniProt Q9UIQ6); format: biochemical; settings: HEK293
[2] = tested on: primary hippocampal neuron cultures; settings: primary hippocampal neuron cultures from mice; cited from earlier work
[3] = tested on: leukotriene A4 hydrolase (LTA4H); settings: cited from earlier work
[4] = tested on: IRAP from Chinese hamster ovary (CHO) cells; settings: read-out: IC50 in CHO cells, hamster enzyme; cited from earlier work
[5] = tested on: aminopeptidase N (APN); settings: cited from earlier work
[6] = Stability in human liver microsomes; format: in vitro ADME; settings: HLM and MLM

recombinant human IRAP, sequence (Q9UIQ6 whole entry): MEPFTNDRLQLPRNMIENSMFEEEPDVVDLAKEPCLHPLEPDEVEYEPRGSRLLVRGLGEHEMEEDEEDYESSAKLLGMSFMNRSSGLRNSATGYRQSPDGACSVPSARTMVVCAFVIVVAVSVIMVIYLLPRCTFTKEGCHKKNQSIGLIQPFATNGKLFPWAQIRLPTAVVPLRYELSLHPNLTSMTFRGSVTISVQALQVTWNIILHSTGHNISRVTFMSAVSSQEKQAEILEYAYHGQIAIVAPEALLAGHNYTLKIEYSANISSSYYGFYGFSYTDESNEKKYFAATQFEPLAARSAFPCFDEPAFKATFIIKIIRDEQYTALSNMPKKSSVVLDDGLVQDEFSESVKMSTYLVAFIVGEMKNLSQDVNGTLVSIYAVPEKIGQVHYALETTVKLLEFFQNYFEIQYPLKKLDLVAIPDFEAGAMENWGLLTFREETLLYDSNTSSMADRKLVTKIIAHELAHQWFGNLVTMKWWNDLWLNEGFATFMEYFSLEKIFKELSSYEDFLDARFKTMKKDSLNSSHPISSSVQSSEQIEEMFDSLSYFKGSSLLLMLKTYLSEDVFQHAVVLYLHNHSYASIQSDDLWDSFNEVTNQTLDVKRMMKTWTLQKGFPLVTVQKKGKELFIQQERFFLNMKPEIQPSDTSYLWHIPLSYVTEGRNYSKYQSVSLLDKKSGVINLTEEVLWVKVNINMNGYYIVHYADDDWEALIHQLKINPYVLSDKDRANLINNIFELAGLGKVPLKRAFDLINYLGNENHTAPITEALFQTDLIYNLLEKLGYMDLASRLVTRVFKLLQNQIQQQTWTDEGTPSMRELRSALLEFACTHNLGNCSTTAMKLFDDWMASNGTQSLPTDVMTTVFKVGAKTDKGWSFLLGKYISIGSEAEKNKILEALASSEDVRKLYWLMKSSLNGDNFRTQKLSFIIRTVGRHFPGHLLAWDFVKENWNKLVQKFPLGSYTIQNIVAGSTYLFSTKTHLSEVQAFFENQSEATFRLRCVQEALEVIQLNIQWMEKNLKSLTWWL

Compound	IRAP inhibition (in words) [1]	density of dendritic spines (in words) [2]	inhibition of LTA4H relative to IRAP (in words) [3]	IC50 [4] [µM]	inhibition of APN relative to IRAP (in words) [5]	stability in the microsome assays (in words) [6]
O=C(Nc1cccc(-c2nnn[nH]2)c1)c1cc(Br)c(Cl)s1 [Compound 12]	complete lack of inhibitory activity	–	–	–	–	–
Cc1ccc(S(=O)(=O)Nc2cccc(-c3nnn[nH]3)c2)cc1C [Compound 25]	submicromolar potency	enhance the density of dendritic spines	much lower efficacy	3.1	much lower efficacy	–
O=S(=O)(Nc1cccc(-c2nnn[nH]2)c1)c1cc(C(F)(F)F)ccc1C(F)(F)F [Compound 29, N-(3-(1H-Tetrazol-5-yl)phenyl)-2,5-bis(trifluoromethyl)benzenesulfonamide]	submicromolar potency; also recorded: submicromolar affinity	–	–	–	–	high metabolic stability
O=S(=O)(Nc1cccc(-c2nnn[nH]2)c1)c1ccc(-c2ccccc2)cc1 [Compound 20]	totally inactive	–	–	–	–	–
O=S(=O)(Nc1cccc(-c2nnn[nH]2)c1)c1cc(Cl)c(Cl)s1 [Compound 13]	submicromolar activity	–	–	–	–	–
O=S(=O)(Nc1cccc(-c2nnn[nH]2)c1)c1ccc(Cl)c2nonc12 [Compound 21]	submicromolar	–	much lower efficacy	–	much lower efficacy	–
O=S(=O)(Nc1cccc(-c2nnn[nH]2)c1)c1cc(Cl)c(Cl)cc1Cl [Compound 26]	submicromolar potency	enhance the density of dendritic spines	much lower efficacy	2.9	much lower efficacy	–
